Patent US20080187605A1, “PREVENTING PATHOLOGICAL NERVE CELL SUICIDE (NEUROAPOPTOSIS) IN IMMATURE NERVOUS SYSTEMS” (priority 2007, published 2008)
Entries after “also recorded” stand apart in the source; their conditions may differ. Read-outs that look alike come from different tables or passages of the source.

Key:
[1] = system: caudate/putamen of infant mouse brain; assay: Xenon and isoflurane neuroapoptosis, activated caspase-3 stereology
Protocol: Seven-day-old C57BL/6 mice were exposed to one of four conditions: air (control); 0.75% isoflurane; 70% xenon or 0.75% isoflurane+70% xenon (n≧9 per group) for 4 hours. All pups were euthanized 2 hours later for histopathological evaluation of the brains, using activated caspase-3 immunohistochemical staining to detect apoptotic neurons. Quantitative assessment of the number of apoptotic neurons in caudate/putamen under each condition was performed by unbiased stereology.
The results are depicted graphically in FIG. 7. In this graph, the number of apoptotic neurons under the control condition is given as 100% and the values for the experimental conditions are given as a percentage of the control.

7 day old rat brain = settings: xenon administered 4 hours ahead as preconditioning stimulus; cited from earlier work
[2] = system: caudate nucleus of infant mouse brain; assay: Pilocarpine pretreatment against isoflurane- or midazolam-induced neuroapoptosis, activated caspase 3 IHC counts
Description: Agents that suppress neuronal activity, including GABAergic anesthetic agents such as midazolam and isoflurane, trigger neuroapoptosis in the infant mouse brain. If suppression of neuronal activity is a sufficient cause of the neuroapoptosis response, it is possible that agents that increase neuronal activity, such as the muscarinic cholinergic agonist, pilocarpine, might counteract this response. […] Control littermates received saline instead of pilocarpine, then were exposed to the same midazolam or isoflurane treatments. The animals were euthanized 6 hrs after initiation of anesthetic drug exposure and the neuroapoptosis response in the caudate nucleus was evaluated by stereological counting of neuronal profiles showing positive IHC staining for activated caspase 3.

ERK-2 = settings: infant mice; within less than 30 minutes after ethanol
infant mouse brain [3] = settings: 6 hrs; for number of AC3-positive profiles, ethanol by itself: ethanol 250 mg/g, mean across 5 brain regions, vs saline
Protocol: The mean number of AC3-positive profiles per mm^3 across all 5 brain regions was calculated for each treatment condition.

ERK-1 = settings: infant mice; within less than 30 minutes after ethanol
AKT = settings: infant mice; within 30 minutes after ethanol
infant mouse brain [4] = settings: for number of AC3-positive profiles, ketamine by itself: five day old mice, ketamine 40 mg/kg, caudate nucleus and cerebral cortex, vs saline
Protocol: (§1) Five day old infant mice were treated either with saline or ketamine (40 mg/kg), or lithium carbonate (6 Meq/kg), or ketamine (40 mg/kg) plus lithium (6 Meq/kg). The animals were euthanized 6 hrs after initiation of drug exposure and the neuroapoptosis response in 2 different brain regions (caudate nucleus, cerebral cortex) was evaluated by stereological counting of neuronal profiles showing positive immunohistochemical staining for activated caspase 3 (AC3). The mean number of AC3-positive profiles per mm^3 across these 2 brain regions was calculated for each treatment condition.

[5] = system: infant mouse brain (RSC/S and thalamus); settings: infant mice; single dose of lithium carbonate before brain injury or up to 4 hours after injury
Description: The method used herein for creating a consistent and reproducible head injury, in infant rats and mice, uses an electromagnetic impact device with a moving coil actuator, mounted on the arm of a stereotaxic holder. The actuator is positioned over the skull of an anesthetized animal, and has a blunt tip aimed at a specific location and angle on the skull. The actuator is driven electromagnetically, and impacts the skull at a computer-controlled speed, delivering a precise concussive force to a targeted zone on the skull.
As described in reports such as Bayly et al 2006, this type of concussive force can be applied to a single side of the head, creating nerve cell death by two different mechanisms. Brain cells directly beneath the skull at the site of impact die by an excitotoxic mechanism, which is confined to the local impact zone, and which leads to end-stage cell death within 4 hours. […]
In these tests, apoptotic neurons were detected by immunohistochemical staining of activated caspase-3 proteins. The quantitative counts were performed in RSC/S and thalamus tissues taken from both (i) the ipsilateral side of the brain, which was damaged, and (ii) the contralateral side of the brain, which was not damaged. […]

infant mouse brain [6] = settings: 6 hrs
Protocol: as §1, with “The” for “Five day old infant mice were treated either with saline or ketamine (40 mg/kg), or lithium carbonate (6 Meq/kg), or ketamine (40 mg/kg) plus lithium (6 Meq/kg). The”

FC(F)OC(Cl)C(F)(F)F (stereo not shown) [isoflurane]
neuroapoptosis in the caudate/putamen, drug alone compared to controls ([1]; mouse, in vivo): significant increase

[Xe] [xenon]
apoptotic response of xenon together with isoflurane, relative to xenon alone ([1]; 0.75% isoflurane+70% xenon for 4 hours): only moderately higher
neurotoxic reaction of xenon plus isoflurane, greater than control ([1]; 0.75% isoflurane+70% xenon for 4 hours, control (air) given as 100%): about 350%
protection against isoflurane-induced neuroapoptosis ([1]; 70% xenon combined with 0.75% isoflurane): markedly reduces; also recorded: strongly protects; also recorded: markedly protects
degree of neuroapoptotic response, drug alone ([1]; 70% xenon or 0.75% isoflurane alone for 4 hours): relatively weak neuroapoptogenic potential; also recorded: mild degree; also recorded: mild neuroapoptotic response
neuroapoptosis in the caudate/putamen, drug alone compared to controls ([1]; seven-day-old mice, 70% xenon or 0.75% isoflurane for 4 hours, euthanized 2 hours later, vs air): significant increase
hypoxic and/or ischemic neurodegeneration (7 day old rat brain): protect

CC[C@@H]1C(=O)OC[C@@H]1Cc1cncn1C [pilocarpine]
neuroapoptotic response to isoflurane in the caudate nucleus ([2]; P5 mice, pilocarpine 20 mg/kg 2 hrs before isoflurane 0.75% for 4 hrs, euthanized 6 hrs after start of anesthetic, vs saline pretreatment): significantly reduced; also recorded: markedly reduces
neuroapoptotic response to midazolam in the caudate nucleus ([2]; P5 mice, pilocarpine 20 mg/kg 2 hrs before midazolam 9 mg/kg, euthanized 6 hrs after start of anesthetic, vs saline pretreatment): significantly reduced; also recorded: markedly reduces
degeneration of caudate neurons caused by a GABA anesthetic drug ([2]; infant mice, pilocarpine given prior to GABA anesthetic drug): completely prevented, or greatly reduced
protective effect depending on timing of pilocarpine ([2]; pilocarpine given at the same time as the anesthetic (protective if 2 or more hrs prior)): not if given at the same time

Cc1ncc2n1-c1ccc(Cl)cc1C(c1ccccc1F)=NC2 [midazolam]
apoptotic response in the caudate nucleus, anesthetic alone ([2]; infant mice, isoflurane 0.75% for 4 hrs or midazolam 9 mg/kg): induced

CCO [ethanol]
activated isoform of ERK-2 (ERK-2): rapid decrease
number of AC3-positive profiles, ethanol by itself (infant mouse brain [3]; five day old mice): strong neuroapoptotic response
number of AC3-positive profiles, ethanol by itself (infant mouse brain [3]; five day old mice, listed as Ethanol): marked increase
activated isoform of ERK-1 (ERK-1): rapid decrease
activated isoform of AKT (AKT): marked suppression

O=C([O-])[O-].[Li+].[Li+] [lithium, lithium carbonate]
protection against ketamine-induced neuroapoptosis (infant mouse brain [4]; lithium 6 Meq/kg): total protection; also recorded: potently prevent
apoptosis rate, lithium plus ketamine (infant mouse brain [4]; lithium 6 Meq/kg plus ketamine 40 mg/kg, 6 hrs): down to the same level as for lithium alone
number of AC3-positive profiles, lithium by itself (spontaneous neuroapoptosis) (infant mouse brain [4]; lithium carbonate 6 Meq/kg, 6 hrs, ketamine experiment, vs saline controls): marked reduction
number of AC3-positive profiles, lithium by itself (spontaneous neuroapoptosis) (infant mouse brain [3]; five day old mice, lithium carbonate 3 or 6 Meq/kg (equally strong), vs saline controls): marked reduction
apoptosis rate, lithium plus ethanol (infant mouse brain [3]; lithium 3 Meq/kg plus ethanol 250 mg/g): down to the same rate as in saline controls
apoptosis rate, lithium plus ethanol (infant mouse brain [3]; lithium 6 Meq/kg (higher dose) plus ethanol 250 mg/g): down to lower than the saline control level
apoptotic neurodegeneration after traumatic brain injury [5]: prevented almost all
apoptosis rate, lithium plus propofol (infant mouse brain [6]; lithium 6 Meq/kg plus propofol 50 mg/kg): down to a level lower than the saline control level
number of AC3-positive profiles, lithium by itself (spontaneous neuroapoptosis) (infant mouse brain [6]; lithium carbonate 6 Meq/kg, propofol experiment, vs saline controls): marked reduction

CNC1(c2ccccc2Cl)CCCCC1=O (stereo not shown) [ketamine]
number of AC3-positive profiles, ketamine by itself (infant mouse brain [4]; 6 hrs): severe and pathological neuroapoptosis
number of AC3-positive profiles, ketamine by itself (infant mouse brain [4]; 6 hrs, listed as Ketamine): marked increase
